Data as given in patent US8853246B2 (Dow AgroSciences LLC, priority 2009, dated 2014).
Where two headings read alike, the source gives them in different places.

Assays:
[1] = system: Green Peach Aphid (Myzus Persicae); experiment: Insecticidal test for green peach aphid in foliar spray assay (col. MYZUPE); format: in vivo; conditions: Myzus persicae, 72 h, read-out: MYZUPE 200 ppm (Corrected % Control, rating)
In short: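 Corrected % control derives from microscope counts of live aphids per plant, treated against diluent-only checks, 3 days after foliar spraying at ~25 °C and 40% RH. Test solution was 200 ppm in 0.025% aqueous Tween 20, applied to both leaf sides of infested cabbage seedlings, four pots each.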

[2] = system: Sweetpotato Whitefly-Crawler (Bemisia Tabaci); experiment: Insecticidal test for sweetpotato whitefly-crawler in foliar spray assay (col. BEMITA); format: in vivo; conditions: Bemisia tabaci, read-out: BEMITA 200 ppm (Corrected % Control, rating)
In short: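 Percent control, Abbott-corrected against diluent-sprayed plants, from microscope counts of live nymphs 8-9 days after treatment. Test solution at 200 ppm in 0.025% aqueous Tween 20 applied to both leaf sides of egg-infested cotton after a 5-6 day hatch period (82° F, 50% RH).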

SMILES | pest or weed control at 200 ppm ([1]; green peach aphid) | pest or weed control at 200 ppm ([2]; sweetpotato whitefly-crawler) | melting point | pest or weed control at 200 ppm ([1]; Abbott's correction formula) | pest or weed control at 200 ppm ([2]; Abbott's correction formula)
CC(C[S+](C)[O-])C(=O)N(C)c1cnc(-c2cncc(F)c2)s1 (stereo not drawn) [Compound 81] | 80 to 100% | 80 to 100% | 68 to 70 °C | – | –
CCNC(=S)N(C)c1sc(-c2cccnc2)nc1C [Compound 449] | – | – | 137 to 140 °C | 80 to 100% | 80 to 100%
Cc1nc(-c2cncc(F)c2)sc1NC(=O)C(C)(C)C[S+](C)[O-] (stereo not drawn) [Compound 143] | 80 to 100% | < 80% | 160 to 163 °C | – | –
CN(C(=O)OC(C)(C)C)c1sc(-c2cncc(F)c2)nc1I [Compound 497] | – | – | 70 to 71 °C | 80 to 100% | 80 to 100%
CC(C)(C)OC(=O)N(C(=O)OC(C)(C)C)c1sc(-c2cncc(F)c2)nc1Br [Compound 317] | 80 to 100% | < 80% | 154 to 156 °C | – | –
CCN(C(=O)C(C)Cn1nc(C)nc1C)c1sc(-c2cccnc2)nc1Cl (stereo not drawn) [Compound 541] | – | – | 102 to 105 °C | 80 to 100% | < 80%
CSCCC(=O)Nc1sc(-c2cncc(F)c2)nc1Cl [Compound 421] | 80 to 100% | < 80% | 153 to 154 °C | – | –
COc1ncc(-c2nc(Cl)c(N(C)C(=O)CCSC)s2)cc1F [Compound 551] | – | – | 92 to 94 °C | < 80% | < 80%
CCCNC(=O)N(C)c1sc(-c2cccnc2)nc1C [Compound 391] | 80 to 100% | 80 to 100% | 150 to 151 °C | – | –
Cc1nc(-c2cccnc2)sc1NC(=O)Cn1nc(C)c(S(=O)(=O)N(C)C)c1C [Compound 389] | < 80% | < 80% | 214 to 215 °C | – | –
CN(C(=O)OC(C)(C)C)c1sc(-c2cncc(F)c2)nc1F [Compound 366] | 80 to 100% | 80 to 100% | 81 to 84 °C | – | –
Cc1nc(-c2cncc(F)c2)sc1N(C)C(=O)C1CCCN(C(=O)OC(C)(C)C)C1 (stereo not drawn) [Compound 580] | – | – | 51 to 60 °C | < 80% | 80 to 100%
CSCCC(=O)N(C)c1sc(-c2cnccc2F)nc1Cl [Compound 515] | – | – | 74 to 76 °C | < 80% | < 80%
CCN(C(=O)CCSC)c1cnc(-c2cncc(F)c2)s1 [Compound 308] | 80 to 100% | 80 to 100% | 78 to 81 °C | – | –
CSCC(C)C(=O)Nc1sc(-c2cncc(F)c2)nc1C (stereo not drawn) [Compound 141] | 80 to 100% | 80 to 100% | 110 to 113 °C | – | –
CCOC(=O)c1nc(-c2cccnc2)sc1NC(=O)C(C)CSC (stereo not drawn) [Compound 395] | < 80% | < 80% | 93 to 101 °C | – | –
CSCCC(=O)Nc1sc(-c2cncc(F)c2)nc1C [Compound 142] | 80 to 100% | < 80% | 126 to 130 °C | – | –
COCC(C)OC(=O)Nc1sc(-c2cccnc2)nc1C (stereo not drawn) [Compound 325] | 80 to 100% | 80 to 100% | 106 to 111 °C | – | –
COCC(C)(C)OC(=O)Nc1sc(-c2cccnc2)nc1C [Compound 199] | 80 to 100% | 80 to 100% | 120 to 123 °C | – | –
Cc1nc(-c2ccc(F)nc2)sc1NC(=O)C(C)C [Compound 71] | 80 to 100% | – | 182 to 186 °C | – | –
CCN(C(=O)OC(C)(C)C)c1cnc(-c2cccnc2)s1 [Compound 477] | – | – | 65 to 67 °C | – | –
C/C=C/CN(C(=O)OC(C)(C)C)c1sc(-c2cccnc2)nc1C [Compound 463] | – | – | – | < 80% | < 80%
CC(=O)N1CCCC(C(=O)N(C)c2sc(-c3cccnc3)nc2Cl)C1 (stereo not drawn) [Compound 413] | 80 to 100% | < 80% | – | – | –
CCN(C(=O)C1C[C@@H]1SC)c1sc(-c2cncc(F)c2)nc1Cl (mixture of isomers) [Compound 448] | – | – | – | 80 to 100% | 80 to 100%
Cc1nc(-c2cccnc2)sc1N(C)C(=O)C(CC(C)C)NC(=O)OC(C)(C)C (stereo not drawn) [Compound 283] | < 80% | < 80% | – | – | –
CC(=O)OC(C)C(=O)Nc1sc(-c2cccnc2)nc1C (stereo not drawn) [Compound 334] | 80 to 100% | < 80% | – | – | –

SMILES | pest or weed control at 200 ppm ([1]; green peach aphid) | pest or weed control at 200 ppm ([2]; sweetpotato whitefly-crawler) | melting point | pest or weed control at 200 ppm ([1]; Abbott's correction formula) | pest or weed control at 200 ppm ([2]; Abbott's correction formula)
Cc1nc(-c2cccnc2)sc1N(C)C(=O)C1=CC(=O)CC(C)(C)O1 [Compound 327] | < 80% | < 80% | – | – | –
CSCC(Cc1ccccc1)C(=O)Nc1sc(-c2cccnc2)nc1C (stereo not drawn) [Compound 329] | < 80% | < 80% | – | – | –
CSCC(C)C(=O)Nc1sc(-c2cncc(Cl)c2)nc1C (stereo not drawn) [Compound 17, N-[2-(5-chloropyridin-3-yl)-4-methyl-thiazol-5-yl]-2-methyl-3-methylsulfanyl-propionamide] | 80 to 100% | 80 to 100% | – | – | –
CCN(C(=O)CCSC)c1sc(-c2cccnc2)nc1Cl [Compound 313, N-(4-chloro-2-pyridin-3-yl-thiazol-5-yl)-N-ethyl-3-methylsulfanyl-propionamide] | 80 to 100% | 80 to 100% | – | – | –
CN(C(=O)CC[S+](C)[O-])c1sc(-c2cccnc2)nc1C(F)(F)F (stereo not drawn) [Compound 88] | 80 to 100% | 80 to 100% | – | – | –
CSCCC(=O)N(C)c1sc(-c2cccnc2)nc1C [Compound 35] | 80 to 100% | 80 to 100% | – | – | –
CCC(C)NC(=O)N(C)c1cnc(-c2cncc(F)c2)s1 (stereo not drawn) [Compound 73, 3-sec-Butyl-1-[2-(5-fluoropyridin-3-yl)-thiazol-5-yl]-1-methyl-urea] | 80 to 100% | 80 to 100% | – | – | –
CCOC(=O)c1cncc(-c2nc(C)c(NC(=O)C(C)CSC)s2)c1 (stereo not drawn) [Compound 170] | < 80% | < 80% | – | – | –
Cc1nc(-c2cccnc2)sc1N(C)C(=O)[C@@H](C)N(C)C(=O)OCc1ccccc1 [Compound 439] | – | – | – | < 80% | < 80%
CN(C(=O)OCC[S+](C)[O-])c1cnc(-c2cncc(F)c2)s1 (stereo not drawn) [Compound 84] | 80 to 100% | – | 153 to 155 °C | – | –
CSC(C)CC(=O)N(C)c1sc(-c2cncc(F)c2)nc1Cl (stereo not drawn) [Compound 442] | – | – | – | 80 to 100% | 80 to 100%
CCc1nc(-c2cccnc2)sc1N(C)C(=O)C(F)(F)F [Compound 3, N-(4-Ethyl-2-pyridin-3-yl-thiazol-5-yl)-2,2,2-trifluoro-N-methyl-acetamide] | < 80% | < 80% | – | – | –
Cc1nc(-c2cccnc2)sc1N(CCS(C)(=O)=O)C(=O)OC(C)(C)C [Compound 568] | – | – | – | < 80% | < 80%
CSCC(C)C(=O)N(C)c1sc(-c2cncnc2)nc1C (stereo not drawn) [Compound 52] | < 80% | 80 to 100% | – | – | –
Cc1nc(-c2cccnc2)sc1N(C)C(=O)C(C)NC(=O)OC(C)(C)C (stereo not drawn) [Compound 282] | 80 to 100% | 80 to 100% | – | – | –
CSCCC(=O)N(C)c1sc(-c2cccnc2)nc1Br [Compound 498] | – | – | – | 80 to 100% | 80 to 100%
Cc1nc(-c2cncc(F)c2)sc1NC(=O)C(C)CS(C)(=O)=NC#N (stereo not drawn) [Compound 164, 3-[cyano(methyl)sulfonimidoyl]-N-[2-(5-fluoropyridin-3-yl)-4-methyl-1,3-thiazol-5-yl]-2-methylpropanamide] | 80 to 100% | < 80% | – | – | –
CCN(C(=O)C(C)C)c1sc(-c2cncc(F)c2)nc1Cl [Compound 275] | 80 to 100% | 80 to 100% | – | – | –
CN(C(=O)CN(C)S(C)(=O)=O)c1sc(-c2cccnc2)nc1Cl [Compound 434] | – | – | – | 80 to 100% | 80 to 100%
CSCCC(=O)N(C)c1sc(-c2cncnc2)nc1C [Compound 51] | 80 to 100% | 80 to 100% | – | – | –
CCN(C(=O)c1cccs1)c1sc(-c2cccnc2)nc1Cl [Compound 554] | – | – | – | < 80% | < 80%
CCN(C(=O)Cc1ccsc1)c1sc(-c2cccnc2)nc1Cl [Compound 528] | – | – | – | < 80% | 80 to 100%
CSCC(C)(C)C(=O)Nc1sc(-c2cccnc2)nc1C [Compound 57] | 80 to 100% | 80 to 100% | – | – | –
CCCC(C)C(=O)N1CCCC(C(=O)N(C)c2sc(-c3cncc(F)c3)nc2C)C1 (stereo not drawn) [Compound 582, 1-(2-methyl-pentanoyl)-piperidine-3-carboxylic acid [2-(5-fluoro-pyridin-3-yl)-4-methyl-thiazol-5-yl]-methyl-amide] | – | – | – | 80 to 100% | 80 to 100%
Cc1nc(-c2cccnc2)sc1N(C)C(=O)CN(C)S(=O)(=O)/C=C/c1ccccc1 [Compound 436] | – | – | – | < 80% | < 80%
